Measurements taken from publication PMC7312458, “The Structural Basis of the Binding of Various Aminopolycarboxylates by the Periplasmic EDTA-Binding Protein EppA from Chelativorans sp. BNC1” (International Journal of Molecular Sciences, 2020).
Several values for one entry are separate records, joined by “and”; a condition that tells them apart may be missing. Identical values can stand only once. Like-named read-outs stand apart in the source and are kept apart here.

Experiments:
[1] = molecular target: T1, EppA (Chelativorans sp. BNC1, UniProt Q11H97); assay: Isothermal titration calorimetry of wild-type EppA with chelators and metal chelates; type: binding
[2] = molecular target: T1, EppA; settings: earlier report; cited from earlier work
[3] = molecular target: R74A EppA mutant (Chelativorans sp. BNC1, UniProt Q11H97, R74A); assay: biochemical
Method: (§1) All primers were ordered from Invitrogen (Carlsbad, CA, USA).
(§2) Isothermal calorimetric titrations were performed in a MicroCal iTC200 (Malvern Panalytical Ltd.; Malvern, UK). All titrations were performed at 25 °C and stirred at 750 rpm. […] EppA–ligand binding curves were corrected for heats of dilution by subtracting reference titrations of ligands at the same concentrations into a buffer without EppA. Data were fitted to a single-site model as implemented into the Origin 7 MicroCal Data Analysis software analysis package (Malvern Panalytical Ltd.; Malvern, UK) and then plotted in Excel.

[4] = molecular target: K470A EppA mutant (Chelativorans sp. BNC1, UniProt Q11H97, K470A); assay: biochemical
Method: as §1, §2

[5] = molecular target: R56A EppA mutant (Chelativorans sp. BNC1, UniProt Q11H97, R56A); assay: biochemical
Method: as §1, §2

[6] = molecular target: R480A EppA mutant (Chelativorans sp. BNC1, UniProt Q11H97, R480A); assay: biochemical
Method: as §1, §2

[7] = ITC, wild-type EppA, 25 °C, single replicate, n.b. = no binding
[8] = ITC, wild-type EppA, 25 °C, single-site model, single replicate, n.b. = no binding

T1 sequence (Q11H97 entry or part of it): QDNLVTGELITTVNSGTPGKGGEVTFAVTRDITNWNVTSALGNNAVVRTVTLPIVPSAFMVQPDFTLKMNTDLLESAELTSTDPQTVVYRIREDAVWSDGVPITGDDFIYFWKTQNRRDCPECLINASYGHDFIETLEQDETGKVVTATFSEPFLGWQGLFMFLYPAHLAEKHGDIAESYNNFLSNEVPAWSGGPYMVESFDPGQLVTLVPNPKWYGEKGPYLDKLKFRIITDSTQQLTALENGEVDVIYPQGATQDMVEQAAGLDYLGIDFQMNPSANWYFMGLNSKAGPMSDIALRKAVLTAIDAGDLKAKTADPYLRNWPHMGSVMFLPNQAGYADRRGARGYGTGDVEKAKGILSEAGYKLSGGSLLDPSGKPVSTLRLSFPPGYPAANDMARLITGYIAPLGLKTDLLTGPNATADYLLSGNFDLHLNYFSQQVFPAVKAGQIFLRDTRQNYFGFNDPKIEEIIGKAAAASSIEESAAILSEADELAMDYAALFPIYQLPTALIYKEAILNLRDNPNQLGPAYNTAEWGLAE
Chain of R480A EppA mutant (Q11H97 27-563, stated change not applied): as the sequence (Q11H97 entry or part of it) above
Chain of R74A EppA mutant (Q11H97 27-563, stated change not applied): as the sequence (Q11H97 entry or part of it) above
Chain of K470A EppA mutant (Q11H97 27-563, stated change not applied): as the sequence (Q11H97 entry or part of it) above
Chain of R56A EppA mutant (Q11H97 27-563, stated change not applied): as the sequence (Q11H97 entry or part of it) above

| Compound | ∆H [1, 7] | ∆S [1, 7] | Kd [1, 8] | ∆H [1] | ∆S [1] [cal mol^−1 K^−1] | binding by EppA (in words) ([1]; ITC, wild-type EppA) | further results |
| --- | --- | --- | --- | --- | --- | --- | --- |
| O=C([O-])CN(CCN(CC(=O)O)CC(=O)O)CC(=O)[O-].[Ba+2] [BaEDTA] | n.b. | n.b. | n.b. |  |  |  |  |
| O=C(O)CN(CCN(CC(=O)O)CC(=O)O)CC(=O)O.[Ca+2] [CaEDTA] |  |  |  | -2.917 ± 0.038 kcal/mol | 16.0 |  | binding by EppA (in words) [1]: bound |
| O=C([O-])CN(CCOCCOCCN(CC(=O)O)CC(=O)O)CC(=O)[O-].[Ca+2] [CaEGTA] | n.b. | n.b. | n.b. |  |  | not |  |
| O=C(O)CN(CCN(CC(=O)O)CC(=O)O)CC(=O)O.[Cd+2] [CdEDTA] | -0.555 ± 0.002 kcal/mol | 28.1 cal mol^−1 K^−1 |  |  |  | did not bind |  |
| O=C([O-])CN(CCN(CC(=O)[O-])CC(=O)[O-])CC(=O)[O-].[Co+2] [CoEDTA] | n.b. | n.b. | n.b. |  |  | did not bind |  |
| O=C(O)CN(CCN(CC(=O)O)CC(=O)O)CC(=O)O.[Cr+3] [CrEDTA] |  |  |  | -2.573 ± 0.145 kcal/mol | 30.5 |  |  |
| O=C([O-])CN(CCN(CC(=O)[O-])CC(=O)[O-])CC(=O)[O-].[Cu+2] [CuEDTA] | n.b. | n.b. | n.b. |  |  | did not bind |  |
| O=C(O)CNCCNCC(=O)O [EDDA, ethylenediamine-N,N′-diacetate, reference compound] |  |  |  | -0.851 ± 0.893 kcal/mol | 26.7 |  | Kd ([1]; ITC, wild-type EppA, 25 °C, single-site model, single replicate, n.b. = no binding, read-out: Kd): 588 nM and 340 nM |
| O=C(O)CN(CCN(CC(=O)O)CC(=O)O)CC(=O)O [EDTA, ethylenediaminetetraacetate] |  |  |  | -2.283 kcal/mol and -2.283 ± 0.07 kcal/mol and -2.283 ± 0.070 kcal/mol | 29 |  | binding by EppA (in words) [2]: binds; Kd [3]: 249 ± 382 nM; ∆H ([3]; ITC, R74A mutant, 25 °C): -1.877 kcal/mol and -1.877 ± 0.195 kcal/mol; ∆S ([3]; ITC, R74A mutant, 25 °C): 23.9 cal mol^−1 K^−1; reduction in EDTA binding ([3]; R74A vs wild-type EppA): 26 fold; Kd [4]: 27.1 ± 20.2 nM; ∆H ([4]; ITC, K470A mutant, 25 °C): -1.872 kcal/mol and -1.872 ± 0.117 kcal/mol; ∆S ([4]; ITC, K470A mutant, 25 °C): 28.3 cal mol^−1 K^−1; reduction in EDTA binding ([4]; K470A vs wild-type EppA): 3 fold; Kd [5]: 161 ± 272 nM; ∆H ([5]; ITC, R56A mutant, 25 °C): -1.802 kcal/mol and -1.802 ± 0.147 kcal/mol; ∆S ([5]; ITC, R56A mutant, 25 °C): 25 cal mol^−1 K^−1; reduction in EDTA binding ([5]; R56A vs wild-type EppA): 17 fold; Kd [6]: 40.8 ± 26.5 nM; ∆H ([6]; ITC, R480A mutant, 25 °C): -1.138 kcal/mol and -1.138 ± 0.089 kcal/mol; ∆S ([6]; ITC, R480A mutant, 25 °C): 30 cal mol^−1 K^−1; reduction in EDTA binding ([6]; R480A vs wild-type EppA): 4 fold; Kd ([1]; Kd, ITC, wild-type EppA, 25 °C, single replicate): 9.52 ± 6.25 nM; Kd ([1]; Kd, ITC, wild-type EppA, 25 °C, single-site model, single replicate, n.b. = no binding): 9.5 ± 6 nM |
| O=C(O)CN(CCOCCOCCN(CC(=O)O)CC(=O)O)CC(=O)O [EGTA, ethylene glycol-bis(β-aminoethylether)-N,N,N′,N′-tetraacetic acid, reference compound] | -4.340 kcal/mol and -4.34 ± 0.114 kcal/mol | 16.40 cal mol^−1 K^−1 and 16.4 cal mol^−1 K^−1 |  |  |  |  |  |
| O=C(O)CN(CCN(CC(=O)O)CC(=O)O)CC(=O)O.[Eu+3] [EuEDTA] |  |  |  | -3.943 ± 0.105 kcal/mol | 7.72 |  |  |
| O=C([O-])CN(CCN(CC(=O)[O-])CC(=O)[O-])CC(=O)[O-].[Fe+3] [FeEDTA] | n.b. | n.b. | n.b. |  |  | did not bind |  |
| O=C(O)CN(CCN(CC(=O)O)CC(=O)O)CC(=O)O.[Mg+2] [MgEDTA] |  |  |  | -4.028 ± 0.037 kcal/mol | 16.2 |  |  |
| O=C([O-])CN(CCN(CC(=O)[O-])CC(=O)[O-])CC(=O)[O-].[Ni+2] [NiEDTA] | n.b. | n.b. | n.b. |  |  | did not bind |  |
| O=C(O)CN(CCN(CC(=O)O)CC(=O)O)CC(=O)O.[Sr+2] [SrEDTA] |  |  |  | -4.392 ± 0.118 kcal/mol | 27.1 |  |  |
| O=C(O)CN(CCOCCOCCN(CC(=O)O)CC(=O)O)CC(=O)O.[Sr+2] [SrEGTA] | 0.794 ± 0.164 kcal/mol | 27.1 cal mol^−1 K^−1 |  |  |  |  |  |
| O=C(O)CN(CCN(CC(=O)O)CC(=O)O)CC(=O)O.[Tb+3] [TbEDTA] |  |  |  | -0.751 ± 0.069 kcal/mol | 18.1 |  |  |
| O=C(O)CN(CCN(CC(=O)O)CC(=O)O)CC(=O)O.[Zn] [ZnEDTA] | n.b. | n.b. | n.b. |  |  | did not bind |  |
| Asp10: decameric polyaspartate (DDDDDDDDDD) [reference compound] | n.b. | n.b. | n.b. ^c |  |  | did not bind |  |
| MnEDTA | n.b. | n.b. | n.b. |  |  | did not bind |  |
